Assay results from patent publication US20240218066A1, “USE OF ANTI-PD-1 ANTIBODY IN COMBINATION WITH FIRST-LINE CHEMOTHERAPY IN TREATMENT OF ADVANCED NON-SMALL CELL LUNG CANCER” (SHANGHAI JUNSHI BIOSCIENCES CO., LTD., priority 2021, published 2024).

What was measured:
[1] = system: patients with untreated advanced NSCLC; assay: Phase III clinical study, efficacy assessed by the BIRC according to RECIST 1.1; assay type: in vivo, human; design: reduction of the risk of progression or death, compared to standard chemotherapy / increase of PFS rate at 6 months compared to control group / increase of PFS rate at 12 months compared to control group / increase in ORR compared to control group: concentration or dose not given beside the values
Method: (§1) About 450 patients with advanced NSCLC not accompanied by EGFR-sensitive mutations and ALK fusions were randomly divided into two groups according to a 2:1 ratio, with the test group receiving toripalimab in combination with first-line standard chemotherapy and the control group receiving placebo in combination with first-line standard chemotherapy. Stratification was performed according to PD-L1 expression (TC≥1% vs TC<1%), smoking status (frequent smoking vs no smoking or little smoking), and pathological type (squamous cell carcinoma vs non-squamous cell carcinoma).
(§2) After randomization, the patients were subjected to treatment in the induction stage for 4-6 cycles, during which the patients received toripalimab/placebo+first-line standard chemotherapy. After the induction stage was over, the patients were subjected to treatment in the maintenance stage, during which patients with squamous cell carcinoma continued to receive toripalimab/placebo treatment until progressive disease, and patients with non-squamous cell carcinoma continued to receive toripalimab/placebo+pemetrexed treatment until progressive disease.
Tumor assessments were performed once every 6 weeks for the first 12 months of the study stage according to RECIST 1.1 and iRECIST; after 12 months, tumor assessments were performed every 9 weeks until progressive disease, initiation of a new anti-tumor therapy, intolerable toxicity, withdrawal of informed consent or death, 2 years of treatment with toripalimab, or other reasons as specified in the protocol, whichever occurred first.
Eligible subjects must (1) be patients with histologically and/or cytologically confirmed locally advanced (stage IIIB or IIIC) and stage IV non-small cell lung cancer that is inoperable and cannot receive radical concurrent chemoradiotherapy; (2) have at least one measurable lesion (according to RECIST 1.1); (3) have not received any systemic treatment (patients with recurrence more than 6 months after completion of prior neoadjuvant/adjuvant therapy may also be enrolled); (4) be aged between 18 and 75 years; (5) have ECOG of 0-1; (6) have an expected survival of ≥3 months; and (7) be available to provide tissue specimens for PD-L1 testing.
(§3) Unless otherwise specified, the efficacy analysis was based on the ITT set, which was analyzed by groups according to the treatment regimen to which patients were assigned at randomization.
The progression-free survival rate and median progression-free survival of the JS001+first-line standard treatment group and the placebo+first-line standard treatment group at different time points after the start of treatment were estimated by the Kaplan-Meier method, and Kaplan-Meier curves were plotted. The 95% confidence interval for progression-free survival rate at different time points (6 months and 1 year) was estimated using the Greenwood formula. The 95% confidence interval for median progression-free survival was estimated using the Brookmeyer-Crowley method where the log-log function conversion was used to reach normal approximation. Statistical test was performed on the inter-group difference by a stratified log-rank method for the total population. Statistical test was performed on the inter-group difference by a non-stratified log-rank method for the subpopulations. A stratified COX proportional hazards model was used to estimate the inter-group hazard ratio (HR) and the corresponding 95% confidence interval, and the tied events were processed by an exact method. Stratification analysis was performed using 3 stratification factors in the randomization process, including: (1) PD-L1 expression (TC≥1% vs TC<1%); (2) smoking status (frequent smoking vs no smoking or little smoking); and (3) pathological type (squamous cell carcinoma vs non-squamous cell carcinoma).
For analysis of secondary efficacy endpoints OS, DOR, and TTR, the method described above as applied to the primary efficacy endpoint PFS was used. […]

[2] = system: patients with untreated advanced NSCLC; assay: Phase III clinical study, overall survival (OS); assay type: in vivo, human
Method: as §1, §2, §3
For analysis of secondary efficacy endpoints OS, DOR, and TTR, the method described above as applied to the primary efficacy endpoint PFS was used. For ORR and DCR, the percentage of patients in each treatment group was calculated, and their 95% confidence intervals were calculated using the Clopper-Pearson method. The nominal P values for inter-group comparison were calculated using the Cochran-Mantel-Haenszel method considering randomization stratification factors that were the same as the primary efficacy analysis, and the 95% CI for the inter-group rate differences was estimated.

[3] = system: patients with untreated advanced NSCLC; assay: Phase III clinical study, safety analysis (SS population)
Method: This is a randomized, double-blind, placebo-controlled, multicenter, phase III clinical study for assessing the efficacy and safety of toripalimab (JS001) or placebo in combination with first-line chemotherapy in patients with untreated advanced NSCLC and exploring the population with optimal biomarker prediction.
Toripalimab 240 mg/placebo was administered by intravenous infusion once every three weeks (Q3W) in cycles of 21 days, with treatment continued until the patients met the discontinuation criteria, i.e., recorded progressive disease, unacceptable AEs, investigator-assessed unsuitability for continued treatment, withdrawal of informed consent, 2 years of JS001 treatment, or other reasons as specified in the protocol.
The selection of cisplatin or carboplatin was at the discretion of the investigator.
Safety analysis set (SS): including all patients who received at least one dose of the study drug (JS001/placebo/chemotherapeutic agent).
Safety analysis was performed in SS and crossover treatment analysis sets, where safety data from the double-blind stage of the primary study and the crossover treatment stage were analyzed separately. Safety analyses include drug exposure, compliance, adverse events, laboratory examinations, vital signs, physical examinations, electrocardiogramaminations, ECOG scores, etc.
All safety analyses were based on the SS population (464 patients), including 308 patients in the test group and 156 patients in the control group. […] The primary safety analysis results based on the SS population in the double-blind stage of the primary study are as follows:

[4] = patients with non-squamous cell carcinoma
[5] = patients with squamous cell carcinoma
[6] = SS population, double-blind stage
[7] = compared to placebo + chemotherapy

For “JS001 + standard first-line chemotherapy: toripalimab 240 mg Q3W plus albumin-bound paclitaxel+carboplatin (squamous) or pemetrexed+cisplatin/carboplatin (non-squamous)”, which “PFS rate at 6 months” value ([1]; ITT) is on record?
Its value is 65.3%.

What about the “PFS rate at 12 months” value ([1]; ITT) of the same substance?
The value was 38.9%.

And the “increase of PFS rate at 6 months compared to control group” value ([1]; ITT)?
Its value is 16%.

What about the “increase of PFS rate at 12 months compared to control group” value ([1]; ITT) of the same substance?
Its value is 22.7%.

And the “HR for PFS (test vs control)” value ([1]; ITT population)?
The value was 0.61.

What about the “PFS prolonged by, compared to standard chemotherapy” value ([1]; ITT population) of the same substance?
The value was 2.5 months.

What about the “reduction of the risk of progression or death, compared to standard chemotherapy” value ([1]; ITT population) of the same substance?
The value was 39%.

What about the “median PFS” value ([1]; ITT population, RECIST 1.1) of the same substance?
The value was 8.3 months.

And the “Best overall response: Complete response (CR)” value ([1]; non-squamous cell carcinoma)?
Its value is 3 (1.9) N (%).

And the “Best overall response: Deletion” value ([1]; non-squamous cell carcinoma)?
Its value is 8 (4.9) N (%).

What about the “Best overall response: Non-complete response/non-progressive disease (Non CR/Non PD)” value ([1]; non-squamous cell carcinoma) of the same substance?
The value was 0 N (%).

And the “Best overall response: Not evaluable (NE)” value ([1]; non-squamous cell carcinoma)?
Its value is 0 N (%).

And the “Best overall response: Partial response (PR)” value ([1]; non-squamous cell carcinoma)?
Its value is 94 (58.0) N (%).

And the “Best overall response: Progressive disease (PD)” value ([1]; non-squamous cell carcinoma)?
The value was 8 (4.9) N (%).

And the “Duration of response (DOR), Median (95% confidence interval)” value ([1]; non-squamous cell carcinoma)?
The value was “NE (6.9, NE)”.

What about the “Objective response rate (ORR)” value ([1]; non-squamous cell carcinoma) of the same substance?
Its value is 97 (59.9) N (%).

And the DCR ([1]; overall population)?
Its DCR is 90.9%.

What about the “increase in ORR compared to control group” value (“increase in ORR” below) ([1]; overall population) of the same substance?
Its value is 20.8%.

What about the ORR ([1]; overall population, RECIST v1.1) of the same substance?
The ORR was 65.7%.

And the “HR for PFS (test vs control)” value [1, 4]?
Its value is 0.55.

What about the ORR [1, 4] of the same substance?
The ORR was 59.9%.

What about the “increase in ORR” value [1, 4] of the same substance?
The value was 27.4%.

What about the “median PFS” value [1, 4] of the same substance?
Its value is 10.3 months.

What about the “HR for PFS (test vs control)” value [1, 5] of the same substance?
The value was 0.63.

What about the ORR [1, 5] of the same substance?
The ORR was 72.1%.

And the “increase in ORR” value [1, 5]?
The value was 13.3%.

And the “median PFS” value [1, 5]?
Its value is 6.9 months.

What about the “Best overall response: Complete response (CR)” value ([1]; squamous cell carcinoma) of the same substance?
The value was 0 N (%).

And the “Best overall response: Deletion” value ([1]; squamous cell carcinoma)?
Its value is 8 (5.4) N (%).

What about the “Best overall response: Non-complete response/non-progressive disease (Non CR/Non PD)” value ([1]; squamous cell carcinoma) of the same substance?
The value was 1 (0.7) N (%).

And the “Best overall response: Not evaluable (NE)” value ([1]; squamous cell carcinoma)?
Its value is 0 N (%).

And the “Best overall response: Partial response (PR)” value ([1]; squamous cell carcinoma)?
The value was 106 (72.1) N (%).

And the “Best overall response: Progressive disease (PD)” value ([1]; squamous cell carcinoma)?
Its value is 3 (2.0) N (%).

What about the “Duration of response (DOR), Median (95% confidence interval)” value ([1]; squamous cell carcinoma) of the same substance?
The value was 5.7 (5.2, 9.5).

And the “Objective response rate (ORR)” value ([1]; squamous cell carcinoma)?
The value was 106 (72.1) N (%).

And the “HR for OS (test vs control)” value ([2]; ITT population)?
Its value is 0.81.

And the “median OS” value ([2]; ITT population, as of Mar. 11, 2021, OS data not mature)?
Its value is 21.0 months.

And the deaths reported ([2]; as of Mar. 11, 2021, median follow-up 9.82 months)?
Its deaths reported is 25.6%.

And the “HR for OS (test vs control)” value [2, 4]?
Its value is 0.56.

What about the “HR for OS (test vs control)” value [2, 5] of the same substance?
The value was 1.23.

And the “median OS” value [2, 5]?
Its value is 21.0 months.

And the “SAE: anemia” value ([3]; SS population)?
The value was 5.2%.

What about the “SAE: bone marrow depression” value ([3]; SS population) of the same substance?
Its value is 1.0%.

What about the “SAE: infectious pneumonia” value ([3]; SS population) of the same substance?
The value was 4.9%.

What about the “SAE: leukopenia” value ([3]; SS population) of the same substance?
The value was 2.9%.

And the “SAE: neutropenia” value ([3]; SS population)?
The value was 5.5%.

And the “SAE: thrombocytopenia” value ([3]; SS population)?
Its value is 6.8%.

What about the “TEAE: anemia” value ([3]; SS population) of the same substance?
The value was 88.3%.

And the “TEAE: anorexia” value ([3]; SS population)?
The value was 32.1%.

What about the “TEAE: constipation” value ([3]; SS population) of the same substance?
Its value is 18.5%.

And the “TEAE: elevated aspartate aminotransferase” value ([3]; SS population)?
The value was 31.8%.

What about the “TEAE: fatigue” value ([3]; SS population) of the same substance?
The value was 33.4%.

And the “TEAE: fever” value ([3]; SS population)?
The value was 20.8%.

What about the “TEAE: hypothyroidism” value ([3]; SS population) of the same substance?
Its value is 14.9%.

What about the “TEAE: leukopenia” value ([3]; SS population) of the same substance?
Its value is 83.1%.

What about the “TEAE: nausea” value ([3]; SS population) of the same substance?
The value was 31.8%.

What about the “TEAE: neutropenia” value ([3]; SS population) of the same substance?
Its value is 83.4%.

And the “TEAE: rash” value ([3]; SS population)?
The value was 20.1%.

And the “TEAE: thrombocytopenia” value ([3]; SS population)?
The value was 68.5%.

And the “proportion of SAEs judged by the investigator to be related to the treatment regimen” value ([3]; SS population)?
The value was 31.2%.

And the “proportion of SAEs occurring during treatment” value ([3]; SS population)?
Its value is 38.6%.

And the “proportion of SAEs of grade 3 or higher judged by the investigator to be related to the treatment regimen” value ([3]; SS population)?
Its value is 22.4%.

What about the “proportion of TEAEs of grade 3 or higher as per CTCAE” value ([3]; SS population) of the same substance?
The value was 76.3%.

What about the “proportion of TEAEs of grade 3 or higher as per CTCAE judged by the investigator to be related to the treatment regimen” value ([3]; SS population) of the same substance?
The value was 71.4%.

And the “proportion of patients who experienced at least 1 TEAE” value [3, 6]?
Its value is 99.0%.

What about the “proportion of patients who experienced at least 1 TEAE related to the treatment regimen” value [3, 6] of the same substance?
Its value is 98.1%.

And the “effect on chemotherapy-related toxicity (in words)” value [3, 7]?
The value was “did not increase chemotherapy-related toxicity”.

What about the “effect on the incidence of adverse events of grade 3 or higher (in words)” value [3, 7] of the same substance?
The value was “did not increase the incidence of adverse events of grade 3 or higher”.
